Results: patent US9260417B2, “Therapeutic methods and compositions involving allosteric kinase inhibition” (AMITECH THERAPEUTIC SOLUTIONS, INC., priority 2010, dated 2016)
Where two headings read alike, the source gives them in different places.

Key:
[1] = biological target: FLT3 (Homo sapiens (Human), UniProt P36888); assay: In vitro kinase panel (SelectScreen); type: biochemical
Procedure: (§1) In vitro kinase screen and competitive binding assay. […] 11-point Kd curves were determined for hits identified during the initial screen.

[2] = tested on: XPA-1 cells; assay: Cell cycle analysis of XPA-1 cells (flow cytometry); type: cell-based; conditions: 5 μM, 20 h
Procedure: For cell cycle analysis, cells were grown in complete DMEM+10% FBS in the presence of each inhibitor and harvested after 20 h of inhibitor treatment. Cell cycle analysis was performed by flow cytometry following propidium iodide staining. The cells were harvested, fixed with ice cold methanol, treated for 45 min with 10 μg/ml of RNAse and resuspended in PBS containing 10 μg/ml of PI, and analysed by flow cytometry. […] For corresponding confocal microscopy images, cells attached to coverslips were fixed with cold methanol and permeabilized in PBS containing 0.1% triton X-100 for two minutes and blocked for 60 minutes, at room temperature with 2% BSA in PBS. Cells were stained with the DNA binding dye TOPRO-3 (Invitrogen) to label the DNA and laminB (Santa Cruz) to label the nuclear envelope. The anti-Lamin B antibody was used at a 1:100 dilution for two hours at room temperature. After washing several times with PBS, cells were stained for two hours at room temperature, with secondary antibody diluted 1:300 and co-incubated with TOPRO-3 (1:500) (Invitrogen). Samples were mounted in Vectashield hard-set mounting media (Vector Laboratories) and imaged on a Nikon Eclipse Cl confocal microscope with a 1.4 NA 60× oil-immersion lens, using minimum pinhole (30 μm). Images were captured and processed using EZ-C1 3.50 imaging software (Nikon, Inc). Scale bars, 10 μm.

[3] = tested on: Tg(fli1:EGFP) zebrafish embryos; assay: Zebrafish angiogenesis model; conditions: for blood vessel formation in zebrafish embryos: treated 20-48 hpf, 1 μM 6 or SU5416, up to 10 μM 3; for effect on established intersegmental vessels: compound added at 30 hpf, […] 6, 1 μM sorafenib; for viability of zebrafish embryos: treatment at 48-72 hpf
Procedure: Embryos were treated with 1 μM 6 or SU5416, or 10 μM 3 from 20 hours post fertilization (hpf) until 48 hpf. Representative 3D reconstructions of the blood vasculature are shown for both the head and tail regions of the embryo. Designations for the major vessels in the head and tail of the zebrafish embryo at 48 hpf are available in FIG. 8A. (FIG. 3B) Disruption of lumen formation in the zebrafish during late vessel maturation. Zebrafish treated with either 1 μM 6 or 10 μM 3 from 20-48 hpf were imaged at 35 and 48 hpf. […] Shown is 3D overlap reconstruction of the GFP expressing intersegmental vessels with TUNEL-positive nuclei at 48 hpf (shown in red). Representative phase contrast views as well as quantification of intersegmental vessel volumes from FIG. 3A and FIG. 3B can be found in FIG. 8B-D, respectively. (FIG. 3C) Time course of drug addition to zebrafish. […] At 30 hpf the zebrafish embryos established early vessels with evident lumens. […] All scale bars=100 μm.
Z-stacks from laser scanning confocal microscopy are shown depicting formation of the intersegmental vessels at 48 hpf. n=6 embryos/treatment. (FIG. 4B) HUVECs were co-cultured with hTERT-human hepatic stellate cells in a 3-D collagen matrix in the presence of complete EBM-2 medium to monitor pericyte-associated endothelial tube formation. […] The endothelial tubes were stained at 24 h by adding 2 μl FITC labeled Ulex europaeus lectin (Vector labs) per well. Images were acquired 48 h post seeding of the cells. One representative panel from 3 independent experiments is shown. Green—FITC lectin labeled endothelial cells, Red—DiIC(3) labeled stellate cells. […] Scale bar=200 μm. (FIG. 4C) Tube lengths were measured using Metamorph software for each tube for all 10 fields that were acquired. The % pericyte-covered tube length was calculated from the ratio of tube length sums for the tubes with and without pericyte contact. Error bars are reported as ±SEM of two wells per group. *indicates p<0.05 compared to DMSO group.
Zebrafish studies. Transgenic Tg(fli1:EGFP) zebrafish embryos were purchased from www.zfin.org and reported elsewhere (Lawson, et al. (2002) Dev Biol 248:307-318) and maintained according to (“Zebrafish—A Practical Approach”, Oxford University Press, 2002). Compounds in DMSO stock solutions were diluted directly into the water and vessels were imaged for GFP expression using a Nikon c1-si confocal microscope. Apoptosis was measured by TUNEL staining using the Apoptag in situ Red Fluorescence Kit (Chemicon) with a protocol described previously (Stanton, et al. (2006) The Journal of biological chemistry 281:28782-28793).

[4] = tested on: HUVECs; assay: XTT viability assay in HUVECs; type: cell-based, human; conditions: 72 h, read-out: EC50, endothelial cell viability
Procedure: FIG. 1A-1F illustrate molecular modeling and assay screening to compounds for dual targeting of PDGFRβ and RAF. (FIG. 1A) Molecular modeling of the amino-triazole based small molecules in PDGFRβ and RAF, respectively. […] A homology model of PDGFRβ was created with a structurally-related family member (VEGFR2, PDB 1y6b). […] To autophosphorylation, immunoblots were carried out with a phospho-tyrosine antibody. Membranes were stripped and reprobed for total PDGFRβ levels. […] (FIG. 1D) Structure activity relationships of the amino-triazole based small molecules comparing both PDGFRβ and B-RAF. […] Curves represent the average of 3 separate experiments, error bars represent ±SEM.
For XTT assays, cells were grown in 96-well plates overnight and all assays were conducted in growth medium will full serum and additives. […] Dose-response curves were plotted using GraphPad Prism software and EC50s were calculated using this program.

[5] = biological target: FLT3 D835Y (Homo sapiens (Human), UniProt P36888, D835Y); assay: In vitro kinase panel (SelectScreen); type: biochemical
Procedure: as §1

[6] = HUVECs, full growth medium containing 10% FBS

SMILES	% Inhibition at 10 μM [1]	cell cycle / mitotic progression [2]	blood vessel formation in zebrafish embryos [3]	EC50 [4, 6]	% Inhibition at 10 μM [5]	effect on established intersegmental vessels [3]	viability of zebrafish embryos [3]	inhibition at 10 µM [1]	EC50 ([4]; Homo sapiens, HUVEC)	inhibition at 10 µM [5]
Nc1cc(Oc2ccc(-c3nnc(Nc4cccc(C(F)(F)F)c4)[nH]3)cc2)ncn1 [Compound 3]	−4%	showed no effect	had no effect	18 µM	29%	–	–	–	–	–
CSc1nc(N)cc(Oc2ccc(-c3nnc(Nc4cccc(C(F)(F)F)c4)[nH]3)cc2)n1 [Compound 6]	−2%	G2/M arrest in all tumor cell lines tested	failed to form mature intersegmental vessels	0.54 µM	9%	did not suppress the vascular growth and patterning	all viable	–	–	–
CNC(=O)c1cc(Oc2ccc(NC(=O)Nc3ccc(Cl)c(C(F)(F)F)c3)cc2)ccn1 [sorafenib, reference compound]	–	had no effect on mitotic progression	–	–	–	disrupted mature intersegmental blood vessels	induced death in all animals tested	9%	13.2 µM	72%
